# Data taken from patent US7807368B2, “Cyclin-dependent kinase inhibitors as targets for opiod growth factor treatment” (priority 2006, dated 2010).
# Columns and labels:
# Assay type in all cases: cell-based, human
# SCC-1 cells [1] = assay: siRNA knockdown of OGFr, growth of SCC-1 cells
# Protocol: siRNA knockdown of OGFr. […] For transfection, 5×10^4 cells per well were seeded in 6-well plates containing 1 ml of serum-containing media without antibiotics. In each well, 20 nM OGFr-siRNA or control siRNA solutions in serum-free media were added. Cells were incubated for 4 h at 37° C. prior to the addition of OGF. Cultures were incubated an additional 20 h, and then 1 ml fresh complete media either lacking or containing OGF was added. […] Two independent experiments were conducted. The control siRNAs were purchased from Ambion.
# p16 [2] = assay: Western blot of p16, other CKIs and Cdk4 in SCC-1 cells; conditions: for p16 expression: synchronized SCC-1 cells, 3 h, 10^-6 M OGF, 10^-5 M naloxone
# Protocol: Synchronized cells (˜2×10^6) from each treatment were solubilized in 200 μl RIPA buffer (1×PBS, 10 μM IGEPAL, 1 mg/ml SDS, 5 mg/ml deoxycholic acid), containing protease and phosphatase inhibitors (2 μg/ml aprotinin, 3 mg/ml phenylmethyl sulfonyl fluoride (PMSF), 1 mM sodium orthovanidate, 1 μM okadaic acid). Total protein concentrations were measured using the DC protein assay kit (Bio-Rad Laboratories, Hercules, Calif.). Equal amounts of protein (40 μg) were subjected to 10% SDS-PAGE followed by transfer of proteins onto polyvinylidene difluoride (Millipore, Billerica, Mass.) using standard protocols. The following antibodies were purchased from commercial sources: phospho-Rb (Ser795), phospho-Rb (Ser807/811) (Cell Signaling Technology, Beverly, Mass.); phospho-Rb (Thr821) (Biosource, Camarillo, Calif.); Cdk4, cyclin D1, p15, p16, p18, p19 (Santa Cruz Biotechnology, Santa Cruz, Calif.); total Rb, p21, p27 (BD PharMingen, San Diego, Calif.); β-actin (Clone AC-15, Sigma). The following dilutions of primary antibodies were used to detect respective proteins. 1:200 phospho-Rb (Ser795), 1:200 phospho-Rb (Ser807/811); 1:200 phospho-Rb (Thr821); 1:200 Cdk4, 1:200 cyclin D1, 1:100 p16; 1:200 total Rb, 1:200 p21, 1:100 p27. Membranes were probed with secondary anti-rabbit or anti-mouse horseradish peroxidase-conjugated antibodies (GE Healthcare-Amersham Biosciences, Piscataway, N.J.); blots were developed using a chemiluminescence Western blotting detection system (GE Healthcare-Amersham Biosciences).
# To determine equal loading of total protein samples, blots were reprobed with monoclonal antibody against β-actin at a dilution of 1:2000. If necessary, membranes were stripped in stripping buffer (62.5 mM Tris-HCl and 100 mM β-mercaptoethanol/2% SDS, pH 6.7) at 50° C. before being re-probed. Means and SE were determined from 3 or more independent experiments.
# (§1) To quantify expression levels or kinase activity, the optical density of each band was determined by densitometry and analyzed by QuickOne (Bio-Rad Laboratories). Each value was normalized to β-actin from the same blot. To report the changes due to OGF treatment, the fold increase was calculated by dividing the normalized value from the OGF treated samples by the normalized value of control samples at each time point; thus, increases due to OGF have values greater than one, and decreases due to OGF have values less than one.
# (§2) The p16-targeted siRNAs (antisense:5′ […]-3′; sense (SEQ ID NO:5): 5′ […]-3′(SEQ ID NO:6) were obtained as ready-annealed, purified duplex probes (Invitrogen, Carlsbad, Calif.). For transfection, 2×10^5 cells per well were seeded in 6-well plates containing 1 ml of serum-free media without antibiotics. In each well, 20 nM of p16-siRNA or control siRNA solutions in serum-free media were added. Cells were incubated for 4 h at 37° C. prior to the addition of OGF. Cultures were incubated for additional 20 h, and then 1 ml fresh complete media either lacking or containing OGF was added. At the indicated time points, cells were collected for growth curves or Western blotting. Three or more independent experiments were conducted. The control siRNAs were purchased from Ambion.
# p21 = assay: Western blot of p21, p27 and Cdk2 in BxPC-3 cells; conditions: synchronized BxPC-3 cells, 9 hours, 10^-6 M OGF, 10^-5 M naloxone
# Protocol: (§3) Synchronized cells (2×10^6) from each treatment were solubilized in 200 μl RIPA buffer (1×PBS, 10 μM IGEPAL, 1 mg/ml SDS, 5 mg/ml deoxycholic acid), containing protease and phosphatase inhibitors (2 μg/ml aprotinin, 3 mg/ml phenylmethyl sulfonyl fluoride, 1 mM sodium orthovanidate, 1 μM okadaic acid). Total protein concentrations were measured using the DC protein assay kit (Bio-Rad Laboratories, Hercules, Calif.). Equal amounts of protein (40 μg) were subjected to 10% SDS-PAGE followed by transfer of proteins onto polyvinylidene difluoride (Millipore, Billerica, Mass.) using standard protocols.
# The following antibodies were purchased from commercial sources: phospho-Rb (Ser795), phospho-Rb (Ser807/811) (Cell Signaling Technology, Beverly, Mass.); Cdk2, p57 (Santa Cruz Biotechnology, Santa Cruz, Calif.); p21, p27, total Rb (BD PharMingen, San Diego, Calif.); β-actin (Clone AC-15, Sigma-Aldrich).
# Membranes were probed with secondary anti-rabbit or anti-mouse horseradish peroxidase-conjugated antibodies (GE Healthcare-Amersham Biosciences, Piscataway, N.J.), and developed using a chemiluminescence Western blotting detection system.
# To determine equal loading of total protein samples, blots were re-probed with monoclonal antibody against β-actin at a dilution of 1:2000. If necessary, membranes were processed in stripping buffer (62.5 mM Tris-HCI and 100 mM β-mercaptoethanol/2% SDS, pH 6.7) at 50° C. before being re-probed.
# as §1, with “treatment, we calculated” for “treatment,”, “increase” for “increase was calculated”, “one. For all Western blot analyses, 3 or more independent experiments were performed.” for “one.”
# The p21-targeted siRNAs were obtained from Santa Cruz Biotechnology, and negative control siRNAs were purchased from Ambion (Ambion, Inc., Austin, Tex.). For transfection, 2×10^5 cells per well were seeded in 6-well plates containing 1 ml of media without antibiotics. For each well, 1 μl of siRNA stock (20 μM) was mixed with 175 μl of serum-free media. Two μl of Oligofectamine reagent (Invitrogen, Carlsbad, Calif.) was added to prewashed cells in each well, making the final concentration for siRNA approximately 20 nM. Cells were incubated for 4 hours at 37° C. prior to the addition of OGF. Eighteen hours later, 1 ml fresh complete media with or without OGF was added to the cultures; media and OGF were replaced daily. At the indicated time points, cells were collected for growth curves or Western blotting.
# SCC-1 cells [3] = assay: Growth of SCC-1 cells transfected with p16 siRNA or negative control siRNA; conditions: SCC-1 cells transfected with p16 siRNA, exposed to OGF for 96 h
# Protocol: as §2
# p16 [4] = assay: Western blot of p16 in CAL-27 cells; conditions: CAL-27 cells transfected with p16 siRNA
# Protocol: (§4) The SCC-1 (UM-SCC-1) cell line was obtained from the University of Michigan Cancer Research Laboratory, and CAL-27 and SCC-4 cells were obtained from the American Type Culture Collection (Manassas, Va.). SCC-1 and CAL-27 cells were cultured in DMEM media, whereas SCC-4 cells were grown in 1:1 Hams F-12 DMEM media. All media was supplemented with 10% fetal bovine serum (HyClone, Logan, Utah), 1.2% sodium bicarbonate, and 5000 units/ml penicillin, 5 μg/ml streptomycin and 10 μg/ml neomycin. OGF was purchased from Sigma-Aldrich (St. Louis, Mo.), dissolved in sterile water, and used at a final concentration of 10^−6 M.
# as §3, with “(˜2×10^6)” for “(2×10^6)”, “fluoride (PMSF),” for “fluoride,”, “protocols. […]” for “protocols.”
# p16 [5] = assay: Western blot of p16 in SCC-4 cells; conditions: SCC-4 cells transfected with p16 siRNAs, 72 h
# Protocol: as §4
# as §3, with “(˜2×10^6)” for “(2×10^6)”, “fluoride (PMSF),” for “fluoride,”, “protocols. […]” for “protocols.”
compound,measurement,setting,value
O=C1CC[C@@]2(O)[C@H]3Cc4ccc(O)c5c4[C@@]2(CCN3CC2CC2)[C@H]1O5 [NTX],effect on growth of OGFr-siRNA cultures,"SCC-1 cells [1]; SCC-1 cells subjected to OGFr-siRNA, 10^-6 M",no further effects
same,increase in number of cells,"SCC-1 cells [1]; control siRNA-exposed SCC-1 cells, 10^-6 M, 96 h",27%
same,increase in number of cells,"SCC-1 cells [1]; wt SCC-1 cells, 10^-6 M, 96 h",24%
C=CCN1CC[C@]23c4c5ccc(O)c4O[C@H]2C(=O)CC[C@@]3(O)[C@H]1C5 [naloxone],p16 expression,p16 [2],no effect
same,p16 expression,p16 [2]; listed as NAL,no change
same,p21 expression,p21,no effect
same,p21 expression,p21; listed as NAL,no change
"OGFr-siRNA: OGFr-targeted siRNA duplex (SEQ ID NO:3 and 4) from Ambion (chain 1 UAGAAACUCAGGUUUGGCG; chain 2 CGCCAAACCUGAGUUUCUA; listed as RNA, chemistry not given here)",more cells than wt and control siRNA-treated cultures,"SCC-1 cells [1]; 20 nM siRNA, 96 h",approximately 19%
p16 siRNA: p16-targeted siRNA duplex (SEQ ID NO:5 and 6) from Invitrogen (chain 1 ACACCGCUUCUGCCUUUUCUU; chain 2 GAAAAGGCAGAAGCGGUGUUU; chemistry not given here),p16 protein level compared to untransfected cells,"p16 [2]; SCC-1 cells transfected with p16 siRNA, after 72 h",significantly reduced levels
same,effect of p16 knockdown on OGF growth inhibition,SCC-1 cells [3],blocked OGF inhibitory action
same,p16 levels relative to control cells,p16 [4],significantly reduced p16 levels
same,p16 protein level compared to control cells,p16 [5],significantly reduced levels
